Laboratory results as given in patent US5534536A, “Fused phenol derivatives” (Ono Pharmaceuticals Co. Ltd., priority 1993, dated 1996).
Counter-ions that a name gives are not always drawn.

Key:
[1] = test system: leukotriene B4 (LTB4) production from human whole blood; test: Effect on leukotriene B4 (LTB4) production from human whole blood; assay type: cell-based; conditions: Ca ionophore A23187 stimulated, plasma LTB4 by EIA
Experimental: (§1) iii) Effect on leukotriene B4 (LTB4) and TXB2 production from human whole blood […] The incubation was carried out for 5 min and terminated by centrifugation (12,000 rpm for 1-2 min). Resultant plasma was stocked at -70° C. until determination of the levels of LTB4 and TXB2. Plasma levels of LTB4 and TXB2 were determined by commercially available EIA kits (Cayman Chemical Company) following partial purification. The effect of compound tested was expressed as percentage inhibition against the amounts of LTB4 and TXB2 generated in vehicle (50% ethanol solution)-treated group.

[2] = test system: TXB2 production from human whole blood; test: Effect on TXB2 production from human whole blood; assay type: cell-based; conditions: Ca ionophore A23187 stimulated, plasma TXB2 by EIA
Experimental: as §1

[3] = target: T1, human thromboxane A2 synthetase (Homo sapiens, UniProt P24557); test: Effect on human thromboxane A2 synthetase activity (washed platelets); assay type: cell-based; conditions: conversion of 14C-arachidonic acid into TXB2, 37° C., 2 min
T1 construct: Washed platelet was prepared from citrate-treated [1/9 (v/v)] human peripheral blood; endogenous in cells; host or cells: washed platelets from human peripheral blood
T1 sequence (P24557 1-533): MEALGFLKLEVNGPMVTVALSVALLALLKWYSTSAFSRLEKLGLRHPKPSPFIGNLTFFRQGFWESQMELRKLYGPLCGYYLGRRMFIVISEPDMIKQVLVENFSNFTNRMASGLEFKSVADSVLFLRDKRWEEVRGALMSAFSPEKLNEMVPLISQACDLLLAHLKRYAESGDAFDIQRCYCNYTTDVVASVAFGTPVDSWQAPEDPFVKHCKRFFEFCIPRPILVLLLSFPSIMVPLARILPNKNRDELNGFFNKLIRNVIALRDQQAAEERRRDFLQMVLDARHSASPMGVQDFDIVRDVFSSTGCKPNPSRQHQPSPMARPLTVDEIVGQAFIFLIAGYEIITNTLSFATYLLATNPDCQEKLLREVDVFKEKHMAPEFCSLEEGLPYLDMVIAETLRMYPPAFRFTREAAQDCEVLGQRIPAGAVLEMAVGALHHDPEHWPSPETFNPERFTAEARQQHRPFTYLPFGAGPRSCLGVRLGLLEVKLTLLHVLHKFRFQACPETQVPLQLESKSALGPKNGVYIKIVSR
Experimental: ii) Effect on human thromboxane A2 synthetase activity
Washed platelet was prepared from citrate-treated [1/9 (v/v)] human peripheral blood and suspended in Ca^++ -free Krebs-Henseleit solution (pH 7.4) at a concentration of 10.8×10^7 cells/mi. The assay mixture contained 185 μl of cell suspension, 5 μl of test compound and 10 μl of 100 μM ^14 C-arachidonic acid. Before the reaction was started by the addition of ^14 C-arachidonic acid, the other components were equilibrated for 2 min at 37 ° C. The incubation was carried out at 37° C. for 2 min and terminated by the addition of 300 μl of a mixture of diethyl ether/methanol/1M citric acid (30/4/1). The contents were mixed and then centrifuged for 2 min at 1700 G at 4° C. The products in the resultant organic layer were chromatographed on silica gel thin-layer using a solvent system of a mixture of ethyl acetate/isooctane/acetic acid/H2 O (110/50/20/100) and then autoradiographed on X-ray film. The arachidonic acid metabolites and residual substrate were quantified by chromatoscanner. TXA2 synthetase activity was expressed as the conversion rate of total radioactivity into thromboxane B2 (TXB2), a stable metabolite of TXA2. The effects of compounds tested were expressed as percentage inhibition against the conversion rate of total radioactivity into TXB2 in vehicle (50% ethanol solution)-treated group.

[4] = target: T2, human 5-lipoxygenase (Homo sapiens, UniProt P09917); test: Effect on human 5-lipoxygenase activity (cytosol fraction of polymorphonuclear leukocytes); assay type: biochemical; conditions: human PMN leukocyte cytosol fraction; 14C-arachidonic acid; 30° C., 1 min, pH 7.4
T2 construct: cytosol fraction of polymorphonuclear leukocytes prepared from human peripheral blood; endogenous in cells; host or cells: polymorphonuclear leukocytes from human peripheral blood (cytosol fraction)
T2 sequence (P09917 1-674): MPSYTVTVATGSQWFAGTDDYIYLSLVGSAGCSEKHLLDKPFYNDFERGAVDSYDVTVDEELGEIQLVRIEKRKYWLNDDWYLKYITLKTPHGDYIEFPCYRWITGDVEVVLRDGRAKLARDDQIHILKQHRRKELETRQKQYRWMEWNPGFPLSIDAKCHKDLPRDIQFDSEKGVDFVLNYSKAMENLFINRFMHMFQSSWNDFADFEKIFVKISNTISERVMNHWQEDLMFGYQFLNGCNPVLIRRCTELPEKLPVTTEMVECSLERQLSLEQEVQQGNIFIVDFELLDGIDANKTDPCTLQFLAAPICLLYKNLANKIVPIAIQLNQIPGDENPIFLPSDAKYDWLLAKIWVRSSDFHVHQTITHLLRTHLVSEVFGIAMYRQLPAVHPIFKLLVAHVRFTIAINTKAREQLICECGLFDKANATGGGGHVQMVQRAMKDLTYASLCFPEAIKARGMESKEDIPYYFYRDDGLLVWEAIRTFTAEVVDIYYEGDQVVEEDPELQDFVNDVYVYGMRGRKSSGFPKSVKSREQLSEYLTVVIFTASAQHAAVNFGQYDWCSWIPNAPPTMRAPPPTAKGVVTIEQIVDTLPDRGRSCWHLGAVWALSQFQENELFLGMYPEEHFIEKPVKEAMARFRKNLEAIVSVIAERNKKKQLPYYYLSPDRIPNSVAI
Experimental: i) Effect on human 5-lipoxygenase activity
The assay mixture consisted of 85 μl of potassium/phosphate buffer (pH 7.4) containing 1.18 mM of calcium ion, 5 μl of cytosol fraction of polymorphonuclear leukocytes prepared from human peripheral blood and 5 μl of test compound. The reaction was initiated by the addition of 5 μl of 1 mM ^14 C-arachidonic acid after 5 min equilibration period. The incubation was carried out at 30° C. for 1 min and terminated by the addition of 300 μl of a ice-cold mixture of diethyl ether/methanol/1M citric acid (30/4/1). The mixture was mixed vigorously and centrifuged at 1700 G for 2 min at 4° C. The resultant organic layer was treated with sodium borohydride, kept cold for more than 10 min and then evaporated to dryness under gentle stream of nitrogen. After 200 μl of a mixture of diethyl ether/methanol (30/4) was added to the test tube, the contents were extracted by the addition of 100 μl of 1M citric acid followed by centrifugation (1700 G for 2 min at 4° C.). The products in the upper layer were chromatographed on silica gel thin-layer with a solvent system of diethyl ether/petroleum ether/acetic acid (85/15/0.01) and autoradiographed on X-ray film. The arachidonic acid metabolites and residual substrate were quantified by chromatoscanner. The 5-lipoxygenase activity was calculated by subtracting the conversion rate of total radioactivity into 15-hydroxy eicosatetraenoic acid from total radioactivity. The effect of compounds tested were expressed as percentage inhibition against 5-lipoxygenase activity in the vehicle (50% ethanol solution)-treated group.

[5] = test system: lipid peroxides (TBARS) in rat liver homogenate; test: Antioxidant action (lipid peroxides as TBARS in rat liver homogenate); assay type: biochemical, Sprague-Dawley rat; conditions: FeCl2-initiated, 1 hr at 37° C.
Experimental: Male Sprague-Dawley rat fasted overnight was anesthetized with diethyl ether, and liver was perfused, isolated and homogenized with 1.15% KCl (10% homogenate). The assay mixture contained 200 μl of liver homogenate, 5 μl of test compound and 10 μl of 4.4 mM FeCl2. The reaction was initiated by the addition of FeCl2, and the incubation was carried out for 1 hr at 37° C. The amounts of lipid peroxides produced during this incubation period were determined as thiobarbituric acid reactive substances (TBARS) according to the method described by OHKAWA et. al. (Analytical Biochemistry, 95, 351-358, 1979). The effects of compounds tested were expressed as percentage inhibition against the amounts of TBARS produced in vehicle (50% ethanol solution)-treated group.

SMILES	IC50 [3] [nM]	IC50 [4] [nM]	IC50 [5] [nM]	inhibition at 10 µM [1] [%]	inhibition at 10 µM [2] [%]
Cc1c(O)c(CCCSc2ccccc2)c2c(c1CCn1ccnc1)OC(C)(C)C2 [2(v)]	–	–	–	61	89
Cc1c(O)c(CC(C)C)c2c(c1CCn1ccnc1)OC1(CCCC1)C2 [2(x)]	–	–	–	70	82
Cc1c(O)c(C(C)C)c2c(c1CCn1ccnc1)OC(C)(C)C2 [Example 2, 5-Hydroxy-2,2,6-trimethyl-4-isopropyl-7(2-(1-imidazolyl)ethyl)-2,3-dihydrobenzofuran hydrochloride]	–	–	–	74	92
COC(C)(C)Cc1c(O)c(C)c(CCn2ccnc2)c2c1CC(C)(C)O2 [Example 17]	–	–	–	22	36

Now from value to compound, other results behind:

IC50 [3] [nM]	IC50 [4] [nM]	IC50 [5] [nM]	SMILES	inhibition at 10 µM [1] [%]	inhibition at 10 µM [2] [%]
8600	690	2600	CC1(C)CCc2c(Cn3ccnc3)c(O)c3ccccc3c2O1 [4(e)]	–	–
1400	480	4000	COCOc1c(C)c(CCCOc2cccnc2)c2c(c1C)CCC(C)(C)O2 [Example 10]	–	–
550	1100	3700	Cc1c(O)c(C)c2c(c1CCCOc1cccnc1)OC(C)(C)CC2 [Example 11]	–	–
1000	460	–	Cc1c(O)c(CCCn2ccnc2)cc2c1CC(C)(C)O2 [Example 13]	–	–
